Results as given in PubChem BioAssay (NCI).
Several values for one entry are separate records, joined by “and”; a condition that tells them apart may be missing. Identical values can stand only once.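 Values below derive from 48-hour exposures of cells grown in 96-well plates, with endpoints linearly interpolated between the two concentrations bracketing the appropriate inhibition level. The concentration for 50% growth inhibition is given as GI50. The concentration for full growth arrest is given as TGI.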

What was measured:
Assay in all cases: DTP human tumour cell line panel, 48 h
[1] = system: CAKI-1 renal
[2] = system: DLD-1 colon
[3] = system: KM20L2 colon
[4] = system: M19-MEL melanoma
[5] = system: SF-539 CNS
[6] = system: DMS 273 small cell lung
[7] = system: COLO 205 colon
[8] = system: TK-10 renal
[9] = system: OVCAR-4 ovarian
[10] = system: OVCAR-5 ovarian
[11] = system: MDA-MB-435
[12] = system: MDA-MB-231 breast

SMILES: CS(=O)(=O)N(N(CCCl)S(=O)(=O)c1ccccc1)S(C)(=O)=O
- TGI [1]: > 100 µM
- TGI [2]: > 100 µM
- TGI [3]: > 100 µM
- TGI [4]: > 100 µM
- TGI [5]: > 100 µM
- TGI [6]: > 100 µM
- TGI [7]: > 100 µM
- TGI [8]: > 100 µM
- TGI [9]: > 100 µM

SMILES: O=[N+]([O-])c1cccc(C2ON2C2CCCCC2)c1 (stereo unspecified)
- TGI [1]: 58.7 µM
- TGI [2]: 29.9 µM
- TGI [3]: 49.3 µM
- TGI [4]: 39.9 µM
- TGI [5]: 46.3 µM
- TGI [6]: 41.5 µM
- TGI [7]: 32.6 µM
- TGI [8]: 77 µM
- TGI [10]: > 100 µM
- TGI [9]: 38.3 µM

SMILES: C1=CC=C2NCCCNC3=CC=CC=CC3=NCCCN=C2C=C1
- TGI [2]: > 100 µM
- TGI [3]: > 100 µM
- TGI [4]: > 100 µM
- TGI [5]: > 100 µM
- TGI [6]: > 100 µM
- TGI [7]: > 100 µM
- TGI [8]: > 100 µM
- TGI [10]: > 100 µM
- TGI [9]: > 100 µM

SMILES: O=C(Cc1nc2ccccc2s1)Nc1cccc(C(F)(F)F)c1
- TGI [1]: 31.6 µM
- TGI [2]: 29.9 µM
- TGI [3]: 41.6 µM
- TGI [4]: 25.6 µM
- TGI [5]: 33.4 µM
- TGI [6]: 42.9 µM
- TGI [7]: 30.7 µM
- TGI [8]: 36.1 µM
- TGI [10]: 32.5 µM
- TGI [9]: 30.3 µM

SMILES: O=[N+]([O-])c1cccc(-c2oc(C=Nc3ccccc3)c([N+](=O)[O-])c2-c2cccc([N+](=O)[O-])c2)c1
- TGI [2]: > 100 µM
- TGI [3]: > 100 µM
- TGI [4]: > 100 µM
- TGI [5]: > 100 µM
- TGI [6]: > 100 µM
- TGI [7]: > 100 µM
- TGI [8]: > 100 µM
- TGI [10]: > 100 µM

SMILES: CCC(=O)c1c(NOC2OC(COC(C)=O)C(OC(C)=O)C(OC(C)=O)C2OC(C)=O)nc(OC)n(C)c1=O (stereo unspecified)
- TGI [2]: > 100 µM
- TGI [3]: > 100 µM
- TGI [4]: > 100 µM
- TGI [5]: > 100 µM
- TGI [6]: > 100 µM
- TGI [7]: > 100 µM
- TGI [8]: > 100 µM
- TGI [10]: > 100 µM
- TGI [9]: > 100 µM

SMILES: CC1(C)Cc2cc(C(=O)O)c3c(c2C1=O)COCC3
- TGI [1]: > 100 µM
- TGI [2]: > 100 µM
- TGI [3]: > 100 µM
- TGI [4]: > 100 µM
- TGI [5]: > 100 µM
- TGI [6]: > 100 µM
- TGI [7]: > 100 µM
- TGI [10]: > 100 µM
- TGI [9]: > 100 µM

SMILES: O=C(CCC(=O)C(C(=O)c1ccccc1)c1ccccc1)Nc1cccc(C(F)(F)F)c1 (stereo unspecified)
- TGI [1]: > 100 µM
- TGI [2]: > 100 µM
- TGI [3]: > 100 µM
- TGI [4]: > 100 µM
- TGI [5]: > 100 µM
- TGI [6]: > 100 µM
- TGI [7]: > 100 µM
- TGI [8]: > 100 µM
- TGI [10]: > 100 µM
- TGI [9]: > 100 µM

SMILES: CC1C[C@@H]2C(=O)NC(=O)[C@@H]2c2c1c1ccccc1n2C (stereo partly specified)
- TGI [1]: > 100 µM
- TGI [2]: > 100 µM
- TGI [3]: > 100 µM
- TGI [4]: > 100 µM
- TGI [5]: > 100 µM
- TGI [6]: > 100 µM
- TGI [7]: > 100 µM
- TGI [8]: > 100 µM

SMILES: CCCCCCCCCCCC1CCCC(C)N1 (stereo unspecified)
- GI50 [1]: 4.84 µM
- TGI [1]: 19.5 µM and 116 µM
- GI50 [11]: 5.01 µM
- TGI [11]: 18.2 µM
- TGI [2]: 83.4 µM
- TGI [3]: 85.9 µM
- TGI [4]: 130 µM
- GI50 [5]: 12.2 µM
- TGI [5]: 24.8 µM and 141 µM
- TGI [6]: 136 µM
- GI50 [7]: 1.56 µM
- GI50 [8]: 6.47 µM
- TGI [8]: 19.3 µM
- GI50 [10]: 12.5 µM
- TGI [10]: 28.5 µM and 162 µM
- GI50 [9]: 7.18 µM
- TGI [9]: 22.3 µM and 136 µM
- GI50 [12]: 3.99 µM
- TGI [12]: 18 µM

SMILES: CCc1cccc(C(C)C)c1NC(=O)C(=O)C(CC(=O)Nc1ccc(Cl)c(Cl)c1)C(=O)OC (stereo unspecified)
- TGI [1]: > 100 µM
- TGI [2]: > 100 µM
- TGI [3]: > 100 µM
- TGI [4]: > 100 µM
- TGI [5]: > 100 µM
- TGI [6]: > 100 µM
- TGI [7]: > 100 µM
- TGI [8]: > 100 µM
- TGI [10]: > 100 µM
- TGI [9]: > 100 µM
